PMC6637912 (Molecular Plant Pathology, 2019)
Where two headings read alike, the source gives them in different places.

Target: T1, RipN (Ralstonia pseudosolanacearum, UniProt Q8XQT8)
T1 construct: gene RSp1130
Settings: Mg2+ important, NEBuffer 3, 30 min

T1 sequence (Q8XQT8 1-474): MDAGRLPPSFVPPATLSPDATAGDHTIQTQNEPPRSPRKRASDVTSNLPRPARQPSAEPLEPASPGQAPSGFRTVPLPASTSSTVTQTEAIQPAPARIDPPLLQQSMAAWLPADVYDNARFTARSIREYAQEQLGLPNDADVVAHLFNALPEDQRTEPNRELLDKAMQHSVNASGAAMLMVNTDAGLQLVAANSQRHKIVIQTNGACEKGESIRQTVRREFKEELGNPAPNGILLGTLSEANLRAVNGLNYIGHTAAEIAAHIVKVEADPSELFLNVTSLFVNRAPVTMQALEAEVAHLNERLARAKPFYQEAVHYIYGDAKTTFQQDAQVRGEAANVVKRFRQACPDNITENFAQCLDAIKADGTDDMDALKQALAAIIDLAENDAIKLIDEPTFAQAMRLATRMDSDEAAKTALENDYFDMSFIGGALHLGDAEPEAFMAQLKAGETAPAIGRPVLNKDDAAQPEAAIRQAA

Nc1ncnc2c1ncn2[C@@H]1O[C@H](COP(=O)(O)OP(=O)(O)OC[C@H]2OC(O)[C@H](O)[C@@H]2O)[C@@H](O)[C@H]1O (some centres unmarked) [ADPr]
phosphate colorimetric assay coupled to alkaline phosphatase (optimum pH 7.9-8.5): RipN can hydrolyse ADPr, NADH, NAD, FAD (flavin adenine dinucleotide) and Ap4A

NC(=O)C1=CN([C@@H]2O[C@H](COP(=O)(O)OP(=O)(O)OC[C@H]3O[C@@H](n4cnc5c(N)ncnc54)[C@H](O)[C@@H]3O)[C@@H](O)[C@H]2O)C=CC1 [NADH]
phosphate colorimetric assay coupled to alkaline phosphatase: with ADPr and NADH being the preferred substrates in vitro
